Results published in PubChem BioAssay AID1259407 (Chemical Carcinogenesis Research Information System (CCRIS), 2018).
Activity calls are given as the source filed them. How the calls were made is not given here.

Tested on: CCRIS mutagenicity, Ames/micronucleus/aberration tests
Assay: CCRIS mutagenicity studies

Measured: mutagenic call

Cc1ccccc1N
inactive: End Point: IN VIVO MICRONUCLEUS, Test System: HEPATOCYTES, Species: RAT, Strain/Sex: FISHER 344 OR SD/MALE, Route: ORAL OR IP inactive; negative | Test System: AMES SALMONELLA TYPHIMURIUM, Strain/Indicator: TA97, Metabolic Activation: HAMSTER LIVER S-9, AROCLOR 1254 (10 OR 30%), Method: PREINCUBATION inactive; negative | Test System: AMES SALMONELLA TYPHIMURIUM, Strain/Indicator: TA97, Metabolic Activation: NONE, Method: PREINCUBATION inactive; negative | Test System: AMES SALMONELLA TYPHIMURIUM, Strain/Indicator: TA97, Metabolic Activation: NONE, Method: STANDARD PLATE inactive; negative | Test System: AMES SALMONELLA TYPHIMURIUM, Strain/Indicator: TA97, Metabolic Activation: RAT LIVER S-9, AROCLOR 1254 (10 OR 30%), Method: PREINCUBATION inactive; negative | Test System: AMES SALMONELLA TYPHIMURIUM, Strain/Indicator: TA97, Metabolic Activation: RAT, LIVER, S-9, PHENOBARBITAL AND 5,6-BENZOFLAVONE, Method: PREINCUBATION inactive; negative | Test System: AMES SALMONELLA TYPHIMURIUM, Strain/Indicator: TA97, Metabolic Activation: S-9, Method: STANDARD PLATE inactive; negative | Test System: AMES SALMONELLA TYPHIMURIUM, Strain/Indicator: TA98, Metabolic Activation: HAMSTER LIVER S-9, AROCLOR 1254 (10 OR 30%), Method: PREINCUBATION inactive; negative | Test System: AMES SALMONELLA TYPHIMURIUM, Strain/Indicator: TA98, Metabolic Activation: HAMSTER, LIVER, S-9, AROCLOR 1254 (10%), Method: PREINCUBATION inactive; negative | Test System: AMES SALMONELLA TYPHIMURIUM, Strain/Indicator: TA98, Metabolic Activation: HAMSTER, LIVER, S-9, AROCLOR 1254 (30%), Method: PREINCUBATION inactive; negative | Test System: AMES SALMONELLA TYPHIMURIUM, Strain/Indicator: TA98, Metabolic Activation: HAMSTER, LIVER, S-9, SODIUM PHENOBARBITAL AND 5,6-BENZOFLAVONE, Method: PREINCUBATION inactive; negative | Test System: AMES SALMONELLA TYPHIMURIUM, Strain/Indicator: TA98, Metabolic Activation: NONE, Method: PREINCUBATION inactive; negative | Test System: AMES SALMONELLA TYPHIMURIUM, Strain/Indicator: TA98, Metabolic Activation: NONE, Method: STANDARD PLATE inactive; negative | Test System: AMES SALMONELLA TYPHIMURIUM, Strain/Indicator: TA98, Metabolic Activation: RAT LIVER S-9, AROCLOR 1254 (10 OR 30%), Method: PREINCUBATION inactive; negative | Test System: AMES SALMONELLA TYPHIMURIUM, Strain/Indicator: TA98, Metabolic Activation: RAT, LIVER, S-9, AROCLOR 1254 (10%), Method: PREINCUBATION inactive; negative | Test System: AMES SALMONELLA TYPHIMURIUM, Strain/Indicator: TA98, Metabolic Activation: RAT, LIVER, S-9, AROCLOR 1254 (30%), Method: PREINCUBATION inactive; negative | Test System: AMES SALMONELLA TYPHIMURIUM, Strain/Indicator: TA98, Metabolic Activation: RAT, LIVER, S-9, AROCLOR 1254, Method: PREINCUBATION inactive; negative | Test System: AMES SALMONELLA TYPHIMURIUM, Strain/Indicator: TA98, Metabolic Activation: RAT, LIVER, S-9, PHENOBARBITAL AND 5,6-BENZOFLAVONE, Method: PREINCUBATION inactive; negative | Test System: AMES SALMONELLA TYPHIMURIUM, Strain/Indicator: TA98, Metabolic Activation: S-9, Method: STANDARD PLATE inactive; negative | Test System: AMES SALMONELLA TYPHIMURIUM, Strain/Indicator: TA100, Metabolic Activation: HAMSTER LIVER S-9, AROCLOR 1254 (10%), Method: PREINCUBATION inactive; negative | Test System: AMES SALMONELLA TYPHIMURIUM, Strain/Indicator: TA100, Metabolic Activation: HAMSTER, LIVER, S-9, AROCLOR 1254 (10%), Method: PREINCUBATION inactive; negative | Test System: AMES SALMONELLA TYPHIMURIUM, Strain/Indicator: TA100, Metabolic Activation: HAMSTER, LIVER, S-9, SODIUM PHENOBARBITAL AND 5,6-BENZOFLAVONE, Method: PREINCUBATION inactive; negative | Test System: AMES SALMONELLA TYPHIMURIUM, Strain/Indicator: TA100, Metabolic Activation: NONE, Method: PREINCUBATION inactive; negative | Test System: AMES SALMONELLA TYPHIMURIUM, Strain/Indicator: TA100, Metabolic Activation: NONE, Method: STANDARD PLATE inactive; negative | Test System: AMES SALMONELLA TYPHIMURIUM, Strain/Indicator: TA100, Metabolic Activation: RAT LIVER S-9, AROCLOR 1254 (10 OR 30%), Method: PREINCUBATION inactive; negative | Test System: AMES SALMONELLA TYPHIMURIUM, Strain/Indicator: TA100, Metabolic Activation: RAT, LIVER, S-9, AROCLOR 1254 (10%), Method: PREINCUBATION inactive; negative | Test System: AMES SALMONELLA TYPHIMURIUM, Strain/Indicator: TA100, Metabolic Activation: RAT, LIVER, S-9, AROCLOR 1254 (30%), Method: PREINCUBATION inactive; negative | Test System: AMES SALMONELLA TYPHIMURIUM, Strain/Indicator: TA100, Metabolic Activation: RAT, LIVER, S-9, AROCLOR 1254, Method: STANDARD PLATE inactive; negative | Test System: AMES SALMONELLA TYPHIMURIUM, Strain/Indicator: TA100, Metabolic Activation: RAT, LIVER, S-9, PHENOBARBITAL AND 5,6-BENZOFLAVONE, Method: PREINCUBATION inactive; negative | Test System: AMES SALMONELLA TYPHIMURIUM, Strain/Indicator: TA100, Metabolic Activation: S-9, Method: STANDARD PLATE inactive; negative | Test System: AMES SALMONELLA TYPHIMURIUM, Strain/Indicator: TA102, Metabolic Activation: HAMSTER, LIVER, S-9, SODIUM PHENOBARBITAL AND 5,6-BENZOFLAVONE, Method: PREINCUBATION inactive; negative | Test System: AMES SALMONELLA TYPHIMURIUM, Strain/Indicator: TA102, Metabolic Activation: NONE, Method: PREINCUBATION inactive; negative | Test System: AMES SALMONELLA TYPHIMURIUM, Strain/Indicator: TA102, Metabolic Activation: NONE, Method: STANDARD PLATE inactive; negative | Test System: AMES SALMONELLA TYPHIMURIUM, Strain/Indicator: TA102, Metabolic Activation: S-9, Method: STANDARD PLATE inactive; negative
active: End Point: IN VIVO MICRONUCLEUS, Test System: PERIPHERAL BLOOD RETICULOCYTES, Species: RAT, Strain/Sex: FISHER 344 OR SD/MALE, Route: ORAL OR IP active; positive | Test System: AMES SALMONELLA TYPHIMURIUM, Strain/Indicator: TA98, Metabolic Activation: HAMSTER, LIVER, S-9, Method: PREINCUBATION (PRIVAL METHOD) active; positive | Test System: AMES SALMONELLA TYPHIMURIUM, Strain/Indicator: TA98, Metabolic Activation: RAT, LIVER, S-9, AROCLOR 1254 + 200 UG NORHARMAN, Method: STANDARD PLATE active; positive | Test System: AMES SALMONELLA TYPHIMURIUM, Strain/Indicator: TA100, Metabolic Activation: HAMSTER LIVER S-9, AROCLOR 1254 (30%), Method: PREINCUBATION active; positive | Test System: AMES SALMONELLA TYPHIMURIUM, Strain/Indicator: TA100, Metabolic Activation: HAMSTER, LIVER, S-9, AROCLOR 1254 (30%), Method: PREINCUBATION active; positive
